According to US10167262B2, “Herbicidal substituted 3-arylpyrazoles” (FMC CORPORATION, priority 2014, dated 2019):

Tests used:
Test in all cases: Test E pre-/postemergence greenhouse test, plant response rating 0-100
Format in all cases: in vivo
[1] = system: waterhemp (common waterhemp, Amaranthus rudis); details: Amaranthus tuberculatus, post-emergence, Postemergence, scale 0 to 100
Description: (§1) Seeds of plant species selected from corn (Zea mays), soybean (Glycine max), velvetleaf (Abutilon theophrasti), lambsquarters (Chenopodium album), wild poinsettia (Euphorbia heterophylla), palmer pigweed (Amaranthus palmeri), waterhemp (common waterhemp, Amaranthus rudis), surinam grass (Brachiaria decumbens), large (Lg) crabgrass (Digitaria sanguinalis), Brazilian crabgrass (Digitaria horizontalis), fall panicum (Panicum dichotomiflorum), giant foxtail (Setaria faberii), green foxtail (Setaria viridis), goosegrass (Eleusine indica), johnsongrass (Sorghum halepense), ragweed (common ragweed, Ambrosia elatior), barnyardgrass (Echinochloa crus-galli), sandbur (southern sandbur, Cenchrus echinatus), arrowleaf sida (Sida rhombifolia), Italian ryegrass (Lolium multiflorum), dayflower (Virginia (VA) dayflower, Commelina virginica), field bindweed (Convolvulus arvensis), morningglory (Ipomoea coccinea), nightshade (eastern black nightshade, Solanum ptycanthum), kochia (Kochia scoparia), yellow nutsedge (Cyperus esculentus), smartweed (ladysthumb smartweed, Polygonum persicaria), cocklebur (common cocklebur, Xanthium strumarium), and hairy beggarticks (Bidens pilosa), were planted into a silt loam soil and treated preemergence with test chemicals formulated in a non-phytotoxic solvent mixture which included a surfactant.
(§2) At the same time, plants from these crop and weed species and also waterhemp_RES1, (ALS & Triazine resistant common waterhemp, Amaranthus rudis), and waterhemp_RES2, (ALS & HPPD resistant common waterhemp, Amaranthus rudis) were planted in pots containing Redi-Earth® planting medium (Scotts Company, 14111 Scottslawn Road, Marysville, Ohio 43041) comprising spaghnum peat moss, vermiculite, wetting agent and starter nutrients were treated with postemergence applications of test chemicals formulated in the same manner. Plants ranged in height from 2 to 18 cm for postemergence treatments (1- to 4-leaf stage).
(§3) Treated plants and controls were maintained in a greenhouse for 14 to 21 days, after which time all species were compared to controls and visually evaluated. Plant response ratings, summarized in Table E, are based on a scale of 0 to 100 where 0 is no effect and 100 is complete control. A dash (-) response means no test result.

[2] = system: sandbur (southern sandbur, Cenchrus echinatus); details: Cenchrus echinatus, post-emergence, Postemergence, scale 0 to 100
Description: as §1, §2, §3

[3] = system: Brazilian crabgrass (Digitaria horizontalis); details: Digitaria horizontalis, post-emergence, Postemergence, scale 0 to 100, read-out: Plant response rating, Crabgrass, Brazil
Description: as §1, §2, §3

[4] = system: palmer pigweed (Amaranthus palmeri); details: Amaranthus palmeri, post-emergence, Postemergence, scale 0 to 100
Description: as §1, §2, §3

[5] = system: dayflower (Virginia (VA) dayflower, Commelina virginica); details: Commelina virginica, post-emergence, Postemergence, scale 0 to 100
Description: as §1, §2, §3

[6] = system: wild poinsettia (Euphorbia heterophylla); details: Euphorbia heterophylla, post-emergence, Postemergence, scale 0 to 100, read-out: Plant response rating, Poinsettia, Wild
Description: as §1, §2, §3

[7] = system: hairy beggarticks (Bidens pilosa); details: Bidens pilosa, post-emergence, Postemergence, scale 0 to 100
Description: as §1, §2, §3

[8] = system: Italian ryegrass (Lolium multiflorum); details: Lolium multiflorum, post-emergence, Postemergence, scale 0 to 100
Description: as §1, §2, §3

corn (Zea mays) = details: Zea mays, post-emergence, Postemergence, scale 0 to 100
Description: as §1, §2, §3

[9] = system: barnyardgrass (Echinochloa crus-galli); details: Echinochloa crus-galli, post-emergence, Postemergence, scale 0 to 100
Description: as §1, §2, §3

[10] = system: field bindweed (Convolvulus arvensis); details: Convolvulus arvensis, post-emergence, Postemergence, scale 0 to 100
Description: as §1, §2, §3

[11] = system: arrowleaf sida (Sida rhombifolia); details: Sida rhombifolia, post-emergence, Postemergence
Description: as §1, §2, §3

CCOC(OCC)(c1ccccc1)c1c[nH]nc1-c1cc(Cl)cc(Cl)c1 [Compound 14, 3-(3,5-dichlorophenyl)-4-(diethoxyphenylmethyl)-1H-pyrazole]
pest or weed control at 31 g/ha ([1]; 31 g ai/ha): 90%
pest or weed control at 62 g/ha ([1]; 62 g ai/ha): 95%
pest or weed control at 125 g/ha ([1]; 125 g ai/ha): 98%
pest or weed control at 250 g/ha ([1]; 250 g ai/ha): 100%
pest or weed control at 500 g/ha ([1]; 500 g ai/ha): 100%
pest or weed control at 31 g/ha ([2]; 31 g ai/ha): 0%
pest or weed control at 62 g/ha ([2]; 62 g ai/ha): 0%
pest or weed control at 125 g/ha ([2]; 125 g ai/ha): 0%
pest or weed control at 250 g/ha ([2]; 250 g ai/ha): 0%
pest or weed control at 500 g/ha ([2]; 500 g ai/ha): 0%
pest or weed control at 31 g/ha ([3]; 31 g ai/ha): 0%
pest or weed control at 62 g/ha ([3]; 62 g ai/ha): 0%
pest or weed control at 125 g/ha ([3]; 125 g ai/ha): 0%
pest or weed control at 250 g/ha ([3]; 250 g ai/ha): 0%
pest or weed control at 500 g/ha ([3]; 500 g ai/ha): 0%
pest or weed control at 31 g/ha ([4]; 31 g ai/ha): 80%
pest or weed control at 62 g/ha ([4]; 62 g ai/ha): 90%
pest or weed control at 125 g/ha ([4]; 125 g ai/ha): 95%
pest or weed control at 250 g/ha ([4]; 250 g ai/ha): 100%
pest or weed control at 500 g/ha ([4]; 500 g ai/ha): 100%
pest or weed control at 31 g/ha ([5]; 31 g ai/ha): 0%
pest or weed control at 62 g/ha ([5]; 62 g ai/ha): 0%
pest or weed control at 125 g/ha ([5]; 125 g ai/ha): 0%
pest or weed control at 250 g/ha ([5]; 250 g ai/ha): 0%
pest or weed control at 500 g/ha ([5]; 500 g ai/ha): 0%
pest or weed control at 31 g/ha ([6]; 31 g ai/ha): 0%
pest or weed control at 62 g/ha ([6]; 62 g ai/ha): 0%
pest or weed control at 125 g/ha ([6]; 125 g ai/ha): 0%
pest or weed control at 250 g/ha ([6]; 250 g ai/ha): 10%
pest or weed control at 500 g/ha ([6]; 500 g ai/ha): 5%
pest or weed control at 31 g/ha ([7]; 31 g ai/ha): 80%
pest or weed control at 62 g/ha ([7]; 62 g ai/ha): 90%
pest or weed control at 125 g/ha ([7]; 125 g ai/ha): 95%
pest or weed control at 250 g/ha ([7]; 250 g ai/ha): 95%
pest or weed control at 500 g/ha ([7]; 500 g ai/ha): 98%
pest or weed control at 31 g/ha ([8]; 31 g ai/ha): 0%
pest or weed control at 62 g/ha ([8]; 62 g ai/ha): 0%
pest or weed control at 125 g/ha ([8]; 125 g ai/ha): 0%
pest or weed control at 250 g/ha ([8]; 250 g ai/ha): 0%
pest or weed control at 500 g/ha ([8]; 500 g ai/ha): 0%
Corn plant response rating (crop injury, 0 = no effect, 100 = complete kill) at 31 g/ha (corn (Zea mays); 31 g ai/ha): 0%
Corn plant response rating (crop injury, 0 = no effect, 100 = complete kill) at 62 g/ha (corn (Zea mays); 62 g ai/ha): 0%
Corn plant response rating (crop injury, 0 = no effect, 100 = complete kill) at 125 g/ha (corn (Zea mays); 125 g ai/ha): 0%
Corn plant response rating (crop injury, 0 = no effect, 100 = complete kill) at 250 g/ha (corn (Zea mays); 250 g ai/ha): 0%
Corn plant response rating (crop injury, 0 = no effect, 100 = complete kill) at 500 g/ha (corn (Zea mays); 500 g ai/ha): 0%
pest or weed control at 31 g/ha ([9]; 31 g ai/ha): 0%
pest or weed control at 62 g/ha ([9]; 62 g ai/ha): 0%
pest or weed control at 125 g/ha ([9]; 125 g ai/ha): 0%
pest or weed control at 250 g/ha ([9]; 250 g ai/ha): 0%
pest or weed control at 500 g/ha ([9]; 500 g ai/ha): 10%
pest or weed control at 31 g/ha ([10]; 31 g ai/ha): 0%
pest or weed control at 62 g/ha ([10]; 62 g ai/ha): 0%
pest or weed control at 125 g/ha ([10]; 125 g ai/ha): 0%
pest or weed control at 250 g/ha ([10]; 250 g ai/ha): 0%
pest or weed control at 500 g/ha ([10]; 500 g ai/ha): 0%
pest or weed control at 31 g/ha ([11]; 31 g ai/ha, scale 0 to 100): 80%
pest or weed control at 62 g/ha ([11]; 62 g ai/ha, scale 0 to 100): 90%
pest or weed control at 125 g/ha ([11]; 125 g ai/ha, scale 0 to 100): 90%
pest or weed control at 250 g/ha ([11]; 250 g ai/ha, scale 0 to 100): 90%
pest or weed control at 500 g/ha ([11]; 500 g ai/ha, scale 0 to 100 (0 no effect, 100 complete control)): 95%
